Consider one compound from patent US20090062223A1, “AMINO TRICYCLIC-NUCLEOSIDE COMPOUNDS, COMPOSITIONS, AND METHODS OF USE” (GENELABS TECHNOLOGIES, INC., priority 2007, published 2009).

Series [1] can be described thus: Solubility (shaking flask). Conditions: phosphate buffer solution (PBS), aqueous buffer, thermodynamic from solid; PBS; 37° C. for 24 hours. The class given is physicochemical. The procedure:
The solubility for certain compounds were determined using the following protocol and procedure. 1) The solution, sterile water or phosphate buffer solution (PBS), was added to the test compound tube to make the final concentration 10 mg/mL. 2) The sample tube was vortexed and incubated at 37° C. for 24 hours. During the incubation period, the sample tube was vortexed several times. 3) After the incubation, vortex the tube and centrifuge the tube at 13,000 rpm for 10 mins using an Eppendorf Centrifuge Model 5415C. If the solution was still cloudy, centrifuge it for longer until a clear supernatant was achieved. 4) The supernatant was diluted to 1×, 10× and 100× in 50% ACN in water. 5) A six point standard curve was prepared separately to make the final concentrations of 1 μg/mL, 5 μg/mL, 10 μg/mL, 20 μg/mL, 40 μg/mL and 60 μg/mL. 6) Samples were quantified using an HPLC with UV detector. 7) From the three concentrations of 1×, 10× and 100× supernatant, choose the value, which was fallen into the standard curve range (1 ug/mL-60 ug/mL), as the final result. If all the results were out of the curve range, adjust using a dilution factor to make the value within the curve range.

Series [2] in a line: in vitro. In kind it is in vitro ADME. Conditions: human, Caco-2. The procedure:
Caco-2 cells were maintained in Dulbecco's Modification of Eagle's Medium (DMEM) with sodium pyruvate, Glutmax supplemented with 1% Pen/Strep, 1% NEAA and 10% fetal bovine serum in an incubator set at 37° C., 90% humidity and 5% CO2. Caco-2 cells between passage 43 and 61 were grown to confluence over at least 21-days on 24 well PET (polyethylene-terephthalate) plates (BD Biosciences). Experiments were run using a new HBSS donor buffer from Invitrogen containing additional 10 mM HEPES, 15 mM Glucose with pH adjusted to pH 6.5. The receiver well used HBSS buffer supplemented with 1% BSA and the pH adjusted to pH 7.4. After an initial equilibration with transport buffer, TEER values were read to test membrane integrity. The experiment was started by the addition of buffers containing test compounds and 100 μl of solution is taken at 1 and 2 hrs from the receiver compartment. Removed buffer was replaced with fresh buffer and a correction was applied to all calculations for the removed material. Each compound was tested in 2 separate replicate wells for each condition. All samples were immediately collected into 400 μl 100% acetonitrile acid to precipitate protein and stabilize test compounds. Cells were dosed on the apical or basolateral side to determine forward (A to B) and reverse (B to A) permeability. Permeability through a cell free trans-well was also determined as a measure of cellular permeability through the membrane and non-specific binding. To test for non-specific binding and compound instability the total amount of drug was quantitated at the end of the experiment and compared to the material present in the original dosing solution as a percent recovery. Samples were analyzed by LC/MS/MS.
The apparent permeability, Papp, and % recovery were calculated as follows: […]
where, • dR/dt is the slope of the cumulative concentration in the receiver compartment versus time in μM/s based on receiver concentrations measured at 60 and 120 minute. • Vr and Vd is the volume in the receiver and donor compartment in cm^3, respectively. • A is the area of the cell monolayer (0.33 cm^2). • D0 and D120 is the measured donor concentration at the beginning and end of the experiment, respectively. • R120 is the receiver concentration at the end of the experiment (120 minutes).
The apparent permeability for certain compounds were determined using the above procedure.

≈ marks a conversion by molar mass, not a printed value.

In the case of `CC(=O)OC[C@H]1O[C@@H](n2cc3c4c(ncnc42)NC(=O)C=C3N)C(C)(OC(C)=O)[C@@H]1OC(C)=O` (stereo in doubt) [Compound 117, Acetic acid 4-acetoxy-2-acetoxymethyl-5-(9-amino-7-oxo-6,7-dihydro-2,3,5,6-tetraaza-benzo[cd]azulen-2-yl)-4-methyl-tetrahydro-furan-3-yl ester], the concentration in solution in series [1] (solubility at 24 h) came to 510 µg/mL (≈ 1080 µM). For the same compound, the Papp A→B at 2 h in series [2] was greater than 1 ×10⁻⁶ cm/s.

The solubility is the dissolved amount per volume that the medium holds. Higher therefore signals a readily soluble substance. By Papp A→B is commonly meant the apparent permeability from the apical to the basolateral side of a cell layer. Low values mean slow passage, high ones fast passage.
